The source of these data is US20240308968A1, “FUNGICIDAL SUBSTITUTED HETEROCYCLES” (FMC Corporation, priority 2021, published 2024).

What is called pest or weed control is how far the test organism was held down. The low end stands for weak suppression, the high end for strong suppression.

Common to all, as to format: in vivo
One assay relates to Zymoseptoria tritici. Description: Test A: preventive spray on wheat seedlings, wheat leaf blotch disease rating. The note with it: 100 = 100% disease control, 0 = no control; for pest or weed control at 50 ppm / pest or weed control at 250 ppm: Zymoseptoria tritici, 456 h. The source says: (§1) General protocol for preparing test suspensions for Tests A-F: the test compounds were first dissolved in acetone in an amount equal to 3% of the final volume and then suspended at the desired concentration (in ppm) in acetone and purified water (50/50 mix by volume) containing 50 to 250 ppm of the surfactant PEG400 (polyhydric alcohol esters). The resulting test suspensions were then used in Tests A-F.
The test solution was sprayed to the point of run-off on wheat seedlings. The following day the seedlings were inoculated with a spore suspension of Zymoseptoria tritici (the causal agent of wheat leaf blotch) and incubated in a saturated atmosphere at 24° C. for 48 h, and then moved to a growth chamber at 20° C. for 17 days, after which time disease ratings were made. […]

The subject of the next assay is Phakopsora pachyrhizi. In words: Test D: preventive spray on soybean seedlings, Asian soybean rust disease rating. The note with it: 100 = 100% disease control, 0 = no control; for pest or weed control at 50 ppm / pest or weed control at 250 ppm: Phakopsora pachyrhizi, 216 h.
Excerpt: as §1
The test solution was sprayed to the point of run-off on soybean seedlings. The following day the seedlings were inoculated with a spore suspension of Phakopsora pachyrhizi (the causal agent of Asian soybean rust) and incubated in a saturated atmosphere at 22° C. for 24 h and then moved to a growth chamber at 22° C. for 8 days, after which time visual disease ratings were made.
(§2) The test suspension was sprayed to the point of run-off on tomato seedlings. The following day the seedlings were inoculated with a spore suspension of Alternaria solani (the causal agent of tomato early blight) and incubated in a saturated atmosphere at 27° C. for 48 h, and then moved to a growth chamber at 20° C. for 3 days, after which time visual disease ratings were made. A rating of 100 indicates 100% disease control and a rating of 0 indicates no disease control (relative to the controls). A dash (-) indicates the compound was not tested.

In assay [1] the test system is Blumeria graminis f. sp. Tritici. In words: Test C: preventive spray on wheat seedlings, wheat powdery mildew disease rating. The note with it: 100 = 100% disease control, 0 = no control; for pest or weed control at 50 ppm / pest or weed control at 250 ppm: Blumeria graminis, 192 h.
Excerpt: as §1
The test suspension was sprayed to the point of run-off on wheat seedlings. The following day the seedlings were inoculated with a spore dust of Blumeria graminis f. sp. Tritici, (also known as Erysiphe graminis f. sp. Tritici, the causal agent of wheat powdery mildew) and incubated in a growth chamber at 20° C. for 8 days, after which time visual disease ratings were made.
as §2

In the next assay the test system is Botrytis cinerea. In words: Test E: preventive spray on tomato seedlings, tomato Botrytis disease rating. As to conditions: 100 = 100% disease control, 0 = no control; for pest or weed control at 50 ppm / pest or weed control at 250 ppm: Botrytis cinerea, 120 h.
Excerpt: as §1
The test suspension was sprayed to the point of run-off on tomato seedlings. The following day the seedlings were inoculated with a spore suspension of Botrytis cinerea (the causal agent of tomato Botrytis) and incubated in a saturated atmosphere at 20° C. for 48 h, and then moved to a growth chamber at 24° C. for 3 days, after which time visual disease ratings were made.
as §2

The subject of assay [2] is Puccinia recondita f. sp. Tritici. Description: Test B: preventive spray on wheat seedlings, wheat leaf rust disease rating. As to conditions: 100 = 100% disease control, 0 = no control; for pest or weed control at 50 ppm / pest or weed control at 250 ppm: Puccinia recondita, 192 h.
Excerpt: as §1
The test solution was sprayed to the point of run-off on wheat seedlings. The following day the seedlings were inoculated with a spore suspension of Puccinia recondita f. sp. Tritici (the causal agent of wheat leaf rust) and incubated in a saturated atmosphere at 20° C. for 24 h, and then moved to a growth chamber at 20° C. for 7 days, after which time disease ratings were made.
as §2

Another assay deals with Alternaria solani. Description: Test F: preventive spray on tomato seedlings, tomato early blight disease rating. The note with it: 100 = 100% disease control, 0 = no control; for pest or weed control at 50 ppm / pest or weed control at 250 ppm: Alternaria solani, 120 h.
Excerpt: as §1, §2

On to `COc1cc(OC)c(Cl)c(-n2c(-c3ccc(F)cc3Cl)c(C)c(=O)n(C)c2=O)c1` [Compound 37, 1-(2-chloro-3,5-dimethoxyphenyl)-6-(2-chloro-4-fluorophenyl)-3,5-dimethyl-2,4(1H,3H)-pyrimidinedione], for which the pest or weed control at 50 ppm amounted to 100% in the assay on Zymoseptoria tritici (50 ppm); 77% with Phakopsora pachyrhizi (50 ppm); 98% in assay [1] (50 ppm); 95% with Botrytis cinerea (50 ppm); 100% in assay [2] (50 ppm); 53% in the assay on Alternaria solani (50 ppm).

Consider `COc1cc(OC)cc(-n2c(-c3ccc(F)cc3Cl)c(Cl)c(=O)n(C)c2=O)c1` [Compound 38, 5-chloro-6-(2-chloro-4-fluorophenyl)-1-(3,5-dimethoxyphenyl)-3-methyl-2,4(1H,3H)-pyrimidinedione], for which the pest or weed control at 50 ppm in the assay with Zymoseptoria tritici (50 ppm) worked out at 0%; with Phakopsora pachyrhizi (50 ppm), 0%; in assay [1] (50 ppm), 0%; in the assay on Botrytis cinerea (50 ppm) it was 70%; in assay [2] (50 ppm), 96%; in the assay on Alternaria solani (50 ppm), 0%.

For the compound `COc1cc(OC)cc(-n2c(-c3ccc(F)cc3Cl)c(C)c(=O)n(C)c2=O)c1` [Compound 39, 6-(2-chloro-4-fluorophenyl)-1-(3,5-dimethoxyphenyl)-3,5-dimethyl-2,4(1H,3H)-pyrimidinedione], the pest or weed control at 50 ppm in the assay with Zymoseptoria tritici (50 ppm) was 0%; with Phakopsora pachyrhizi (50 ppm), 73%; in assay [1] (50 ppm) it was 98%; with Botrytis cinerea (50 ppm), 90%; in assay [2] (50 ppm), 100%; in the assay with Alternaria solani (50 ppm), 9%.

As for `COc1cc(OC)cc(-c2ncncc2-c2c(F)cc(F)cc2F)c1` [Compound 40], in the assay with Zymoseptoria tritici (250 ppm), the “Test A disease control rating” value turned out to be 0%. The “Test D disease control rating” value in the assay on Phakopsora pachyrhizi (250 ppm) was found to be 0%. The “Test C disease control rating” value in assay [1] (250 ppm) turned out to be 69%. Moreover, the “Test E disease control rating” value in the assay with Botrytis cinerea (250 ppm) was found to be 0%. Besides, in assay [2] (250 ppm), the “Test B disease control rating” value turned out to be 9%. The “Test F disease control rating” value in the assay on Alternaria solani (250 ppm) amounted to 0%.

On to `COc1cc(OC)cc(-c2nc(C)ncc2-c2c(F)cc(F)cc2F)c1` [Compound 41], for which the “Test A disease control rating” value in the assay on Zymoseptoria tritici (250 ppm) is 84%. Moreover, in the assay with Phakopsora pachyrhizi (250 ppm), the “Test D disease control rating” value is 0%. Moreover, the “Test C disease control rating” value in assay [1] (250 ppm) is on record as 91%. For the same compound, the “Test E disease control rating” value with Botrytis cinerea (250 ppm) is 17%. Also, the “Test B disease control rating” value in assay [2] (250 ppm) was 0%. Also, the “Test F disease control rating” value with Alternaria solani (250 ppm) amounted to 0%.

As for `COc1cc(OC)c(Cl)c(-c2nc(C)nc(C)c2-c2ccc(F)cc2Cl)c1` [Compound 42, 4-(2-chloro-3,5-dimethoxyphenyl)-5-(2-chloro-4-fluorophenyl)-2,6-dimethylpyrimidine], the pest or weed control at 250 ppm in the assay on Zymoseptoria tritici (250 ppm) came to 96%; in the assay with Phakopsora pachyrhizi (250 ppm), 100%; in assay [1] (250 ppm), 100%; in the assay with Botrytis cinerea (250 ppm) it was 99%; in assay [2] (250 ppm), 100%; with Alternaria solani (250 ppm) it was 100%.

With `Cc1ncnc(-c2ccc(F)cc2Cl)c1-c1ccc(F)cc1Cl` [Compound 43], the “Test A disease control rating” value in the assay with Zymoseptoria tritici (250 ppm) is reported as 0%. The “Test D disease control rating” value with Phakopsora pachyrhizi (250 ppm) came to 78%. In addition, in assay [1] (250 ppm), the “Test C disease control rating” value is reported as 0%. The “Test E disease control rating” value in the assay on Botrytis cinerea (250 ppm) amounted to 0%. The “Test B disease control rating” value in assay [2] (250 ppm) is listed as 0%. The “Test F disease control rating” value with Alternaria solani (250 ppm) was 0%.

Regarding `COc1cc(OC)cc(-c2nc(C)nc(C)c2-c2ccc(F)cc2Cl)c1` [Compound 44, 5-(2-chloro-4-fluorophenyl)-4-(3,5-dimethoxyphenyl)-2,6-dimethylpyrimidine], the pest or weed control at 250 ppm in the assay with Zymoseptoria tritici (250 ppm) was determined as 99%; with Phakopsora pachyrhizi (250 ppm), 95%; in assay [1] (250 ppm) it was 99%; in the assay on Botrytis cinerea (250 ppm), 99%; in assay [2] (250 ppm), 100%; with Alternaria solani (250 ppm), 98%.

Take `COc1cc(OC)cc(-c2nc(Cl)nc(C)c2-c2ccc(F)cc2Cl)c1` [Compound 47]: the “Test A disease control rating” value in the assay with Zymoseptoria tritici (250 ppm) is 100%. In the assay with Phakopsora pachyrhizi (250 ppm), the “Test D disease control rating” value is listed as 98%. In assay [1] (250 ppm), the “Test C disease control rating” value stood at 98%. Also, the “Test E disease control rating” value with Botrytis cinerea (250 ppm) came out at 93%. For the same compound, the “Test B disease control rating” value in assay [2] (250 ppm) turned out to be 100%. Besides, the “Test F disease control rating” value in the assay with Alternaria solani (250 ppm) was 92%.

In the case of `COc1cc(OC)c(Cl)c(-c2nc(Cl)nc(C)c2-c2c(F)cccc2F)c1` [Compound 48, 2-chloro-4-(2-chloro-3,5-dimethoxyphenyl)-5-(2,6-difluorophenyl)-6-methylpyrimidine], the pest or weed control at 250 ppm with Zymoseptoria tritici (250 ppm) came to 100%; with Phakopsora pachyrhizi (250 ppm) it was 100%; in assay [1] (250 ppm), 100%; in the assay on Botrytis cinerea (250 ppm) it was 99%; in assay [2] (250 ppm) it was 100%; with Alternaria solani (250 ppm), 100%.

Regarding `COc1cc(OC)c(Cl)c(-c2nc(Cl)nc(C)c2-c2ccc(F)cc2Cl)c1` [Compound 49, 2-chloro-4-(2-chloro-3,5-dimethoxyphenyl)-5-(2-chloro-4-fluorophenyl)-6-methylpyrimidine], the pest or weed control at 250 ppm turned out to be 100% in the assay with Zymoseptoria tritici (250 ppm); 100% with Phakopsora pachyrhizi (250 ppm); 100% in assay [1] (250 ppm); 96% in the assay with Botrytis cinerea (250 ppm); 100% in assay [2] (250 ppm); 100% with Alternaria solani (250 ppm).

With `COc1ccc(Cl)c(-c2nc(C)nc(C)c2-c2ccc(F)cc2Cl)c1` [Compound 50, 5-(2-chloro-4-fluorophenyl)-4-(2-chloro-5-methoxyphenyl)-2,6-dimethylpyrimidine], the pest or weed control at 250 ppm was found to be 100% with Zymoseptoria tritici (250 ppm); 100% with Phakopsora pachyrhizi (250 ppm); 100% in assay [1] (250 ppm); 99% in the assay with Botrytis cinerea (250 ppm); 100% in assay [2] (250 ppm); 100% with Alternaria solani (250 ppm).

Take `COc1cc(OC)cc(-c2ncnc(OC)c2-c2c(F)cc(F)cc2F)c1` [Compound 51]: in the assay with Zymoseptoria tritici (50 ppm), the “Test A disease control rating” value came to 0%. For the same compound, in the assay with Phakopsora pachyrhizi (50 ppm), the “Test D disease control rating” value turned out to be 8%. For the same compound, the “Test C disease control rating” value in assay [1] (50 ppm) is on record as 0%. Also, in the assay with Botrytis cinerea (50 ppm), the “Test E disease control rating” value came out at 30%. The “Test B disease control rating” value in assay [2] (50 ppm) worked out at 9%. The “Test F disease control rating” value with Alternaria solani (50 ppm) was found to be 0%.

As for `COc1cc(OC)cc(-c2nc(C)nc(Cl)c2-c2ccc(F)cc2Cl)c1` [Compound 52], in the assay with Zymoseptoria tritici (250 ppm), the “Test A disease control rating” value is on record as 100%. For the same compound, the “Test D disease control rating” value in the assay on Phakopsora pachyrhizi (250 ppm) is on record as 13%. The “Test C disease control rating” value in assay [1] (250 ppm) worked out at 99%. Further, in the assay with Botrytis cinerea (250 ppm), the “Test E disease control rating” value worked out at 94%. The “Test B disease control rating” value in assay [2] (250 ppm) is on record as 89%. In the assay on Alternaria solani (250 ppm), the “Test F disease control rating” value was 26%.

On to `COc1cc(OC)cc(-c2nc(C)nc(C)c2-c2c(F)cc(F)cc2F)c1` [Compound 53, 4-(3,5-dimethoxyphenyl)-2,6-dimethyl-5-(2,4,6-trifluorophenyl)pyrimidine], for which the pest or weed control at 50 ppm was 100% with Zymoseptoria tritici (50 ppm); 97% with Phakopsora pachyrhizi (50 ppm); 100% in assay [1] (50 ppm); 96% in the assay on Botrytis cinerea (50 ppm); 100% in assay [2] (50 ppm); 97% in the assay on Alternaria solani (50 ppm).
